Patent US20230219951A1, “PYRIDINE-PYRIMIDINE DERIVATIVE, PREPARATION METHOD THEREFOR AND PHARMACEUTICAL USE THEREOF” (Jiangsu Hengrui Pharmaceuticals Co., Ltd., priority 2020, published 2023)

Columns and labels:
H358 cells = experiment: Inhibition of proliferation of H358 cells (CellTiter-Glo 3D); type: cell-based; conditions: Homo sapiens, NCI-H358, low adsorption plate, 120 h
Protocol: This example is intended to evaluate the inhibition effect of the compounds of the present disclosure on the KRAS target (containing the G12C mutation) by testing the inhibition effect of the compounds of the present disclosure on the proliferation of H358 cells.
H358 cells (ATCC, CRL-5807) were cultured in a complete medium, namely RPMI1640 medium (Hyclone, SH30809.01) containing 10% fetal bovine serum (Corning, 35-076-CV). On the first day of the experiment, the H358 cells were seeded into a 96-well low adsorption plate (Coming, CLS7007-24EA) at a density of 1500 cells/well with a complete medium to form 90 μL of cell suspension per well. The plate was centrifuged at 2000 rpm for 5 min at room temperature and then incubated overnight in a cell incubator at 37° C. with 5% CO2. The next day, 10 μL of test compound diluted in a gradient prepared with the complete medium was added to each well. The final concentrations of the compound were 9 concentration points obtained by 5-fold gradient dilution from 10 μM. A blank control containing 0.1% DMSO was set. The plate was incubated in a cell incubator at 37° C. with 5% CO2 for 120 h. On the seventh day, the 96-well cell culture plate was taken out and 50 μL of CellTiter-Glo® 3D reagent (Promega, G9682) was added into each well. The plate was shaken at room temperature for 25 min, pipetted and mixed well, from which 50 μL of the mixture was transferred into a white impermeable 96-well plate (PE, 6005290). The luminescence signal values were read using a multi-mode microplate reader (PerkinElmer, VICTOR 3).
IC50 values for the inhibitory activity of the compounds were calculated using Graphpad Prism software.

[1] = target: T1, interaction between the KRAS protein subtype G12V and the SOS1 protein (Homo sapiens, UniProt Q07889); experiment: Inhibition of the interaction between KRAS G12V and SOS1 protein (AlphaLISA/AlphaScreen); type: binding; conditions: KRAS G12V + GST-TEV-SOS1(564-1049) + GDP
T1 construct: GST-TEV-SOS1(564-1049) (Viva Biotech, SOS1-191010); purchased SOS1: Viva Biotech; KRAS: Shanghai Panchao Biotechnology Co., Ltd. SOS1-191010
T1 sequence (Q07889 564-1049): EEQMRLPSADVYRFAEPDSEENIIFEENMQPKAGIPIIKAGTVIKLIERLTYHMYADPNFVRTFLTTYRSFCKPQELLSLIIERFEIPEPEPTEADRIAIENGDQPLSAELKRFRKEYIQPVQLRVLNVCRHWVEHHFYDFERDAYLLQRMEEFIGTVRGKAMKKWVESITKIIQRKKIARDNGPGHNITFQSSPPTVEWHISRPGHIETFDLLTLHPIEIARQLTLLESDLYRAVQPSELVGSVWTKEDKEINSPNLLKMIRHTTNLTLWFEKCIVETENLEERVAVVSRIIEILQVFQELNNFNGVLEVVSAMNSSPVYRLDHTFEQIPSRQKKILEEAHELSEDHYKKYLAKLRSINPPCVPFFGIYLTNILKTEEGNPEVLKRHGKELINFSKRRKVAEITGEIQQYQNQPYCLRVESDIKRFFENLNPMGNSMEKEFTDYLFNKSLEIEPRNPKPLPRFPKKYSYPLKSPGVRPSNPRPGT
Protocol: (§1) Test Example 1: Inhibitory Ability of Compounds of the Present Disclosure to the Interaction Between the KRAS Protein Subtype G12D or G12V and the SOS1 Protein. The inhibitory ability of the compounds of the present disclosure to the interaction between the KRAS protein subtype G12D or G12V and the SOS1 protein was determined by the following method. The experimental method was briefly described as follows:
(§2) 1. The experimental buffer was prepared prior to the start of the experiment: 1×PBS+0.1% BSA+0.05% tween 20.
(§3) 2. KRAS G12D and KRAS-G12V proteins were labeled with biotin using the biotin labeling kit.
(§4) 1. Firstly, the biotin-labeled KRAS G12D or KRAS G12V protein was mixed and incubated with the SOS1 protein and GDP for later use.
(§5) 2. AlphaLISA glutathione acceptor beads and AlphaScreen streptavidin donor beads were mixed at a ratio of 1:1 to make the concentration of 40 μg/mL for later use.
(§6) 3. The compound was formulated with the experimental buffer to obtain 10 concentration points by 5-fold gradient dilution from an initial concentration of 40 μM.
(§7) 4. In the 384-well microplate, 10 μL of a mixture of KRAS G12D or KRAS G12V protein and SOS1 and GDP and 5 μL of the diluted compound were added to each well and incubated at room temperature for 30 min away from the light.
(§8) 5. Then, 5 μL of a mixture of AlphaLISA glutathione acceptor beads and AlphaScreen streptavidin donor beads was added to each well and incubated at room temperature for 60 min away from the light.
(§9) 6. The fluorescence values were read on a multi-mode microplate reader.
(§10) 7. IC50 values of the compounds were calculated using Graphpad Prism.

[2] = tested on: ERK phosphorylation of H358 cells; experiment: Inhibition of ERK phosphorylation of H358 cells (HTRF pERK/total ERK); type: cell-based; conditions: Homo sapiens, NCI-H358, 1 h incubation, pERK/total ERK ratio
Protocol: This experiment is intended to evaluate the inhibition effect of the compounds of the present disclosure on the KRAS target (containing the G12C mutation) according to IC50 by determining the inhibition effect of the compounds on ERK phosphorylation of the cells.
H358 cells (ATCC, CRL-5807) were cultured in RPMI1640 (Hyclone, SH30809.01) complete medium containing 10% fetal bovine serum. On the first day of the experiment, the H358 cells were seeded into a 96-well plate at a density of 25,000 cells/well with a complete medium to form 190 μL of cell suspension per well. The plate was incubated overnight in a cell incubator at 37° C. with 5% CO2. The next day, 10 μL of test compound diluted in a gradient prepared with the complete medium was added to each well. The final concentrations of the compound were 9 concentration points obtained by 5-fold gradient dilution from 10 μM. A blank control containing 0.1% DMSO was set. The plate was incubated in a cell incubator at 37° C. with 5% CO2 for 1 h. 1 h later, the 96-well cell culture plate was taken out, the medium was removed by pipetting, 200 μL PBS (Shanghai BasalMedia Technologies Co., Ltd., B320) was added to each well, and the cells were washed once. PBS was removed by pipetting, 50 μL of lysis buffer (Cisbio, 64KL1FDF) containing a blocking reagent (Cisbio, 64KB1AAC) was added to each well, and the plate was shaken on a shaker at room temperature for 40 min for lysis. After lysis, the lysate was pipetted and mixed well, 16 μL of lysate was transferred from each well to each of two HTRF 96-well assay plates (Cisbio, 66PL96100), and then 4 μL of premixed phospho-ERK1/2 antibody solution (Cisbio, 64AERPEG) or 4 μL of premixed total-ERK1/2 antibody solution (Cisbio, 64NRKPEG) was added to each of the two plates. The microplate was sealed with a sealing membrane, centrifuged for 1 min in a microplate centrifuge, and incubated overnight at room temperature away from the light. On the third day, the fluorescence values at an excitation wavelength of 337 nm and at emission wavelengths of 665 nm and 620 nm were read using a PHERAstar multi-mode microplate reader (BMG Labtech, S/N 471-0361).
IC50 values for inhibitory activity of the compounds were calculated using Graphpad Prism software based on compound concentrations and pERK/total ERK ratio.

[3] = target: T2, interaction between the KRAS protein subtype G12D and the SOS1 protein (Homo sapiens, UniProt Q07889); experiment: Inhibition of the interaction between KRAS G12D and SOS1 protein (AlphaLISA/AlphaScreen); type: binding; conditions: KRAS G12D + GST-TEV-SOS1(564-1049) + GDP
T2 construct: GST-TEV-SOS1(564-1049) (Viva Biotech, SOS1-191010); purchased SOS1: Viva Biotech; KRAS: Shanghai Panchao Biotechnology Co., Ltd. SOS1-191010
T2 sequence (Q07889 564-1049): T1 sequence (Q07889 564-1049)
Protocol: as §1, §2, §3, §4, §5, §6, §7, §8, §9, §10

Structure (SMILES) | IC50 (H358 cells) | IC50 [1] | IC50 [3] | IC50 [2]
Cc1nc(N[C@H](C)c2cccc(C(F)(F)CO)c2F)c2cc(C3=CCOCC3)c(=O)[nH]c2n1 [Example 1, (R)-4-((1-(3-(1,1-difluoro-2-hydroxyethyl)-2-fluorophenyl)ethyl)amino)-6-(3,6-dihydro-2H-pyran-4-yl)-2-methylpyrido[2,3-d]pyrimidin-7(8H)-one] | 34 nM | 54 nM | 22 nM | 59 nM
CC(=O)N1CC=C(c2cc3c(N[C@H](C)c4cc(N)cc(C(F)(F)F)c4)nc(C)nc3[nH]c2=O)CC1 [Example 4, (R)-6-(1-acetyl-1,2,3,6-tetrahydropyridin-4-yl)-4-((1-(3-amino-5-(trifluoromethyl)phenyl)ethyl)amino)-2-methylpyrido[2,3-d]pyrimidin-7(8H)-one] | 97 nM | 67 nM | 17 nM | 41 nM
Cc1nc(N[C@H](C)c2cccc(C(F)F)c2F)c2cc(C3CCN(C(=O)CC#N)CC3)c(=O)[nH]c2n1 [Example 17, (R)-3-(4-(4-((1-(3-(difluoromethyl)-2-fluorophenyl)ethyl)amino)-2-methyl-7-oxo-7,8-dihydropyrido[2,3-d]pyrimidin-6-yl)piperidin-1-yl)-3-oxopropanenitrile] | 65 nM | 30 nM | 28 nM | 79 nM
Cc1nc(N[C@H](C)c2cccc(C(F)F)c2F)c2cc([C@]3(O)CC[C@H](O)CC3)c(=O)[nH]c2n1 [Example 18-p2, 4-(((R)-1-(3-(difluoromethyl)-2-fluorophenyl)ethyl)amino)-6-((1r,4R)-1,4-dihydroxycyclohexyl)-2-methylpyrido[2,3-d]pyrimidin-7(8H)-one] | 213 nM | 112 nM | 40 nM | 222 nM
Cc1nc(N[C@H](C)c2cc(N)cc(C(F)(F)F)c2)c2cc(C3=CCOCC3)c(=O)[nH]c2n1 [Example 3, (R)-4-((1-(3-amino-5-(trifluoromethyl)phenyl)ethyl)amino)-6-(3,6-dihydro-2H-pyran-4-yl)-2-methylpyrido[2,3-d]pyrimidin-7(8H)-one] |  |  |  | 55 nM

Continued, in another order:

IC50 (H358 cells) | IC50 [1] | IC50 [3] | Structure (SMILES) | IC50 [2]
62 nM | 54 nM | 15 nM | Cc1nc(N[C@H](C)c2cccc(C(F)F)c2F)c2cc(C3(O)CCN(C(=O)CC#N)CC3)c(=O)[nH]c2n1 [Example 21, (R)-3-(4-(4-((1-(3-(difluoromethyl)-2-fluorophenyl)ethyl)amino)-2-methyl-7-oxo-7,8-dihydropyrido[2,3-d]pyrimidin-6-yl)-4-hydroxypiperidin-1-yl)-3-oxopropanenitrile] | 87 nM
1020 nM | 65 nM | 37 nM | Cc1nc(N[C@H](C)c2cccc3c2OCC3(F)F)c2cc([C@]3(O)CC[C@H](O)CC3)c(=O)[nH]c2n1 (racemic) [Example 25-p2, rac-4-(((R)-1-(3,3-difluoro-2,3-dihydrobenzofuran-7-yl)ethyl)amino)-6-((1r,4R)-1,4-dihydroxycyclohexyl)-2-methylpyrido[2,3-d]pyrimidin-7(8H)-one] | 489 nM
243 nM | 97 nM | 100 nM | Cc1nc(N[C@H](C)c2cccc(C(F)F)c2F)c2cc([C@]3(O)CC[C@@H](O)CC3)c(=O)n(C)c2n1 [Example 28-p1, 4-(((R)-1-(3-(difluoromethyl)-2-fluorophenyl)ethyl)amino)-6-((1s,4S)-1,4-dihydroxycyclohexyl)-2,8-dimethylpyrido[2,3-d]pyrimidin-7(8H)-one] | 231 nM
346 nM | 65 nM | 44 nM | CC(=O)N1CC(Oc2cc3c(N[C@H](C)c4cccc(C(F)F)c4F)nc(C)nc3[nH]c2=O)C1 (racemic) [Example 26, rac-(R)-6-((1-acetylazetidin-3-yl)oxy)-4-((1-(3-(difluoromethyl)-2-fluorophenyl)ethyl)amino)-2-methylpyrido[2,3-d]pyrimidin-7(8H)-one] | 
